{"source": "paper PMC5078989", "about": "“Targeted inhibition of the COP9 signalosome for treatment of cancer” (Nature Communications, 2016)", "key": {"TE-1 cells": {"test_system": "TE-1 cells", "experiment": "Cell viability assay (CellTiter-Glo), TE-1", "type": "cell-based, human", "conditions": "TE-1, 72 h; cytostatic", "method": "(§1) Cells were maintained in a humidified incubator at 37 °C and 5% CO2. […] All cells were negatively tested for mycoplasma contamination either by the vendor or in house. […] If not stated otherwise, cells were harvested after incubation for 16 h and subjected to SDS-PAGE and western blotting. The RNA interference experiment was performed with CSN5 stealth siRNA (#HSS116986) and stealth negative control siRNA (#12935-400) (Invitrogen), which were transfected at 10 nM into HCT116 cells using […] (Qiagen) according to the manufacturer's protocols. Seventy-two hours after transfection, cells were harvested and subjected to SDS-PAGE and western blotting (see Supplementary Fig. 7 for all western blottings performed). A standardized CellTiter-Glo Assay (Promega #G7570) based on the quantification of ATP was applied according to the manufacturer's protocol to measure the amount of viable cells in culture. In brief, cells were seeded into 384-well plates at optimal density for each cell line. After 4 h, compounds were added at different concentrations in growth medium and incubated for another 72 h in a humidifying chamber at 37 °C and 5% CO2. Eventually, equal amounts of CellTiter-Glo reagent were added directly to the cells, incubated for 15 min and luminescence was recorded using PHERAstar plate reader (BMG LABTECH GmbH)."}, "RPN11 (26S proteasome)": {"biological_target": "T1, RPN11 (26S proteasome) (Homo sapiens, UniProt O00487)", "T1 construct": "purchased LifeSensors PS026", "experiment": "Selectivity assay RPN11 (26S proteasome)", "type": "biochemical", "conditions": "JAMM domain protease", "method": "All biochemical assays were performed at room temperature in 384-well plates in a total volume of 25.25 μl per well. Test compounds were dissolved in 90% (v/v) DMSO/water. For the assays, 250 nl of compound solution was added per well, followed by addition of 12.5 μl protease solution. After 70 min of pre-incubation at room temperature, the reactions were started by addition of 12.5 μl substrate solution and followed either by measuring fluorescence intensity (rhodamine 110-based substrates) or by fluorescence lifetime (PT14-based substrates). The effect of compound on enzymatic activity was obtained from the linear part of the progress curves and determined after 1 h (t=60 min). The final compound concentrations ranged from 100 μM to 1 nM.\nRPN11 (26S proteasome). Enzyme purchased from LifeSensors (catalogue number PS026); substrate: K48-linked tetra-ubiquitin chain coupled to a rhodamine 110 fluorophore purchased from LifeSensors (catalogue number NO13–158.01); enzyme concentration: 0.75 nM; substrate concentration: 100 nM; assay buffer: 20 mM Hepes at pH 7.4, 150 mM NaCl, 0.02% Tween-20, 0.5 mM TCEP, 0.05 mM MgCl2, 1 mM ATP and 2 μM ubiquitin aldehyde."}, "HCT116 cells": {"test_system": "HCT116 cells", "experiment": "Cell viability assay (CellTiter-Glo), HCT116", "type": "cell-based, human", "conditions": "HCT116, 72 h; cytotoxic", "method": "as §1"}, "SU-DHL-1 cells [1]": {"test_system": "SU-DHL-1 cells", "experiment": "Cell viability assay (CellTiter-Glo), SU-DHL-1", "type": "cell-based, human", "method": "as §1"}, "SU-DHL-1 cells [2]": {"test_system": "SU-DHL-1 cells", "experiment": "Immunoblotting for PARP and caspase 3 in SU-DHL-1 cells", "type": "cell-based, human", "conditions": "SU-DHL-1, 1 μM, 24 h or 48 h", "method": "Cells were maintained in a humidified incubator at 37 °C and 5% CO2. […] All cells were negatively tested for mycoplasma contamination either by the vendor or in house. […] If not stated otherwise, cells were harvested after incubation for 16 h and subjected to SDS-PAGE and western blotting. The RNA interference experiment was performed with CSN5 stealth siRNA (#HSS116986) and stealth negative control siRNA (#12935-400) (Invitrogen), which were transfected at 10 nM into HCT116 cells using […] (Qiagen) according to the manufacturer's protocols. Seventy-two hours after transfection, cells were harvested and subjected to SDS-PAGE and western blotting (see Supplementary Fig. 7 for all western blottings performed). […] Cells from longer compound incubations were also lysed in RIPA buffer, which allows the protein concentration to be determined by BCA Protein Assay Kit (Pierce). Proteins were separated by SDS-PAGE using 4-20% Tris-Glycine Gels (Invitrogen) and subsequently transferred to polyvinylidene difluoride membranes using a Trans-Blot Turbo System (BioRad). […] Horseradish peroxidase-conjugated secondary antibodies (1:3,000) were purchased from Promega AG and bound antibody was detected by enhanced chemiluminescence (Pierce). page 5: Supplementary Figure 5 a b 0 Cul1-Nedd8 Cul1-Nedd8 Cul1 -20 Cul1 Fbxo7 -40 Fbxo7 -60 Actin -80 Actin CDK6 -100 CDK6 […] […]"}}}
{"smiles": "CC(C)n1nc(C(F)F)cc1C(=O)Nc1ccc([C@H]2[C@@H](O)CCCc3cncn32)c(-c2ccccc2)c1", "note": "[CSN5i-3, 3-(Difluoromethyl)-N-(6-((5S,6S)-6-hydroxy-6,7,8,9-tetrahydro-5H-imidazo[1,5-a]azepin-5-yl)-[1,1′-biphenyl]-3-yl)-1-isopropyl-1H-pyrazole-5-carboxamide]", "values": [{"measurement": "AMAX", "setting": "TE-1 cells", "result": "about −50%"}, {"measurement": "IC50", "setting": "RPN11 (26S proteasome)", "result": "53 ± 26", "unit": "µM"}, {"measurement": "AMAX", "setting": "HCT116 cells", "result": "≤ −95", "unit": "%"}, {"measurement": "EC50", "setting": "SU-DHL-1 cells [1]; Homo sapiens, SU-DHL-1, 72 h, read-out: EC50 cell viability", "result": 0.013, "unit": "µM"}, {"measurement": "AMAX", "setting": "SU-DHL-1 cells [1]; SU-DHL-1 in vitro, 72 h", "result": "≤ −95", "unit": "%"}, {"measurement": "apoptosis markers (cleaved PARP, cleaved caspase 3)", "setting": "SU-DHL-1 cells [2]", "result": "triggered the formation of cleaved PARP and cleaved caspase 3"}]}
